Laboratory results: patent US10933031B2, “Use of guaiacol for the prevention and treatment of glycogen storage disease” (THE TRUSTEES OF COLUMBIA UNIVERSITY IN THE CITY OF NEW YORK, priority 2016, dated 2021)
“Also recorded” adds a separate entry of the source.

Key:
Gbe1^neo/− MEF = assay: High throughput PAS-fluorescence screen of polyglucosan bodies in GBE-deficient MEF; format: cell-based, mouse
Procedure: Skin fibroblasts from wild type or Gbe1^neo/− E17.5 embryos were cultured to establish the MEF cell line by methods known in the art (FIG. 2). Diastase-resistant PAS positive staining was used specifically for carbohydrate staining. After paraformaldehyde fixation, cells were washed with PBS and normal glycogen was degraded by alpha-amylase digestion. The residual polysaccharides and PG in MEF were treated with periodic acid to oxidize sugars to aldehydes, which react with the Schiff reagent and stain pink. Although PAS staining was very efficient to detect PG (see FIGS. 2A, 2B, 2C, 2E, and 2G), the IN Cell 2000 cell detection system relies on fluorescence staining. PAS staining itself is fluorescent due to pararosanilin reagents, such as Rhodamine and TRITC, which can be excited (400 nm) and emits light detectable in red range ([…]) (FIGS. 2D, 2F and 2H).
To set up the automated detection system, control Gbe1^+/+ and Gbe1^neo/− MEFs were plated at different density on 384-well plates in order to obtain optimal cell density. A second important optimization regarded the diastase digestion of normal glycogen, keeping in mind that PGBs are resistant to diastase digestion and longer incubation times and/or higher enzyme concentrations are needed to digest PG. […] After diastase digestion, they were stained with PAS, and, after brief nuclear staining with Hoechst, the plates were analyzed by IN Cell 2000, GE Healthcare (Piscataway, N.J.), a high-throughput imaging system capable of performing high-content analysis using a wide array of micro plates. […] Automated quantitative results were obtained in terms of relative fluorescence per cell. Relative fluorescence per positive cells were analyzed and its significance were determined by z score according to plate average or by B score if there is a positional effect related to row and column that occurs in multi well plate cell cultures (Brideau et al. 2003). […]
1500 cells were plated per well to 384-well plates. […] The following day the cells were stained and analyzed as set forth in Example 3.

[1] = test system: AMP kinase alpha (AMPK-α); assay: Western blot of AMP kinase Thr 172 phosphorylation; format: in vivo, mouse; details: tissue extracts of treated wild type and Gbe1^ys/ys mice, relative to total AMPK-α
Source text: FIG. 7 is a Western blot of phospho AMPK-α and total AMPK in muscle extracts obtained from wild type and Gbe1^ys/ys mice, and guaiacol-treated wild type and Gbe1^ys/ys mice.
Glycogen synthesis and breakdown is regulated according to the energy state of the cell. When glucose is abundant amount of ATP is high and AMP kinase remains un-phosphorylated. However when glucose concentrations go down so do the ATP levels because it is being converted to ADP and AMP.

MEF = assay: Glycogen content of MEF grown in cobalt supplemented media; format: cell-based, mouse; details: n=3, FIG. 3B
Procedure: FIGS. 3A-3C show guaiacol decreases glycogen synthesis. […] FIG. 3C is a graph showing the results of relative glycogen content of cells grown in cobalt supplemented media after 3 days of guaiacol treatment at concentrations indicated on horizontal axis.
(§1) One hit was obtained corresponding to a compound that decreased polyglucosan synthesis more than 50% at 6.75 μM concentration (FIG. 3). […] This compound identified was guaiacol and has been used as an expectorant and flavoring food additive but is no longer being marketed for medical purposes.

[2] = Glucose tolerance test (blood glucose); format: in vivo, mouse; details: after overnight fasting and glucose injection
Procedure: Blood glucose content was measured at times indicated in guaiacol-treated and untreated wild type and APBD (p.Y329s) mice. n=3 in each group.
After overnight fasting, mice were injected glucose and the blood glucose levels were measured.

[3] = Tolerability: grip tests and weight gain or loss; format: in vivo, mouse; details: 22.5 mg/kg in drinking water
Procedure: (§2) Mice were treated with guaiacol in drinking water for 12 months every other day by preparing fresh guaiacol solution in water (3.8 g/liter or 3.1 ml/liter) considering the fact that an adult mouse drinks 6 ml water every day (Bachamov et al. 2002).

Gbe1^ys/ys mice [4] = assay: Tissue glycogen content in treated wild type and Gbe1^ys/ys mice; format: in vivo, mouse
Procedure: FIG. 5 is a graph depicting the results of heart, brain, muscle and liver glycogen content in wild type and Gbe1^ys/ys mice, and guaiacol-treated wild-type and Gbe1^ys/ys mice. Glycogen was measured after a 16 hour fast (n=4 for each treatment). Glycogen content is expressed as percent glucose mg/gram fresh tissue. Error bars represent the mean±SD, P<0.001 where indicated (*).
A mouse model of GBE deficiency created by knocking in via homologous recombination the most common human GBE1 mutation (p.Y329S) found in Ashkenazi Jewish patients has been developed by the inventors and designated Gbe1^ys/ys (Akman et al. 2015).
After one month of treatment, four mice from each group (untreated wild type and Gbe1^ys/ys mice and guaiacol-treated wild type and Gbe1^ys/ys mice) were sacrificed and tissue glycogen contents were measured as described by Pederson et al. 2004.

[5] = HPLC of AMP, ADP, ATP and adenosine in muscle extracts; format: in vivo, mouse; details: for decrease in adenosine levels: muscle
Source text: FIG. 8 is a graph depicting results of high performance liquid chromatography analysis of adenosine in muscle of wild type and Gbe1^ys/ys mice, and guaiacol-treated wild type and Gbe1^ys/ys mice.
[…], the heterotrimeric protein AMPK is formed by α, β, and γ subunits. Each of these three subunits takes on a specific role in both the stability and activity of AMPK. (Stapleton et al. 1996). Specifically, the γ subunit includes four particular cystathionine beta synthase (CBS) domains giving AMPK its ability to sensitively detect shifts in the AMP: ATP ratio. The four CBS domains create two binding sites for AMP commonly referred to as Bateman domains. Binding of one AMP to a Bateman domain cooperatively increases the binding affinity of the second AMP to the other Bateman domain (Akman et al. 2007).

GYS1 = assay: Western blot of GYS1 phosphorylation in muscle extracts after oral guaiacol; format: in vivo, mouse; details: wild type mice, 45-720 mg/kg oral gavage, muscle extracts two hours after administration
Source text: FIG. 4 is a Western blot of GYS1 and GAPDH in muscle extracts obtained from wild type mice two hours after administration with guaiacol, suspended in water, in the indicated dosage amounts on the top panel by oral gavage.
Glycogen synthase is an allosteric enzyme that can be activated by glucose 6 phosphate or inactivated by phosphorylation of a serine residue on the enzyme. Thus, the phosphorylation status of GYS1 in muscle extracts which is the indicator of glycogen synthase activity was determined.
Wild type mice were administered guaiacol suspended in water at concentrations of 45, 90, 180, 360, and 720 mg/kg. Two hours after administration, muscle extracts were obtained and Western blot analysis of GYS1 was performed.

Gbe1^ys/ys mice [6] = assay: Lifespan and disease signs of Gbe1^ys/ys mice on guaiacol in drinking water; format: in vivo, mouse
Procedure: FIG. 9 is a Kaplan-Meier plot which illustrates the incidence of death in Gbe1^ys/ys (n=47), versus wild type mice (n=29), and guaiacol-treated Gbe1^ys/ys and wild type mice (n=4 each).
as §2
Treated Gbe1^ys/ys mice lived up to 24 months at time they were sacrificed as required by the protocol (FIG. 9).

[7] = test system: HepG2 liver epithelial cell line; assay: Glycogen content in HepG2 cells cultured with cobalt chloride; format: cell-based; details: DMEM supplemented with 150 μM cobalt chloride; results not shown
Procedure: as §1

[8] = one month of treatment, 16 hour fast, n=4
[9] = treated Gbe1^ys/ys mice, long-term treatment

SMILES: COc1ccccc1O [guaiacol]
- decrease of polyglucosan synthesis (Gbe1^neo/− MEF; 6.75 μM, three days treatment, JHCCL screen): more than 50%
- PAS stained granules in the cytosol (diastase treated) (Gbe1^neo/− MEF; 10 μM guaiacol, MEF cultures, FIG. 3A): decreased PAS stained granules
- decrease of polyglucosan synthesis and accumulation (Gbe1^neo/− MEF; JHCCL screen, concentration not stated): 50%
- Thr 172 phosphorylation of AMP kinase [1]: increased Thr 172 phosphorylation
- glycogen content in MEF (MEF): decrease of glycogen content
- duration of high blood glucose versus control mice [2]: remained high longer
- blood glucose level versus control mice ([2]; wild type and APBD (p.Y329s) mice, n=3): higher blood glucose; also recorded: increases blood glucose concentration
- effect on animal behavior (grip tests, weight gain or loss) [3]: did not adversely affect the animal's behavior
- glycogen in brain, muscle and heart (Gbe1^ys/ys mice [4]; as restated in Example 7): increased
- glycogen content in the brain and muscle compared to untreated Gbe1^ys/ys mice (Gbe1^ys/ys mice [4]; later treatments, treated Gbe1^ys/ys mice): slight increase
- glycogen content in brain heart and muscle (Gbe1^ys/ys mice [4]; [8]): did not change
- glycogen content of the liver (Gbe1^ys/ys mice [4]; [8]): significant decrease; also recorded: decreased
- AMP, ADP and ATP levels ([5]; muscle extracts, treated vs untreated wild type or Gbe1^ys/ys mice): no significant difference
- decrease in adenosine levels ([5]; Gbe1^ys/ys mice, n=4, p<0.03): 48%
- decrease in adenosine levels ([5]; wild-type mice, n=4, p<0.02): 53%
- phosphorylation of GYS1 compared to total GYS1 protein (GYS1): increased
- lifespan of treated mice (Gbe1^ys/ys mice [6]; Gbe1^ys/ys mice, guaiacol in drinking water, sacrificed at 24 months as required by protocol): up to 24 months
- gait of treated mice (Gbe1^ys/ys mice [6]; treated Gbe1^ys/ys mice): spastic gait
- penile prolapse in male mice (Gbe1^ys/ys mice [6]; treated Gbe1^ys/ys mice): did not have penile prolapse; also recorded: preventing penile prolapse
- PG content in the liver (Gbe1^ys/ys mice [6]; [9]): decreased PG content
- polyglucosan in the muscle brain and heart (Gbe1^ys/ys mice [6]; [9]): slightly higher polyglucosan
- glycogen content in HepG2 [7]: decreased glycogen content
